Experimental data taken from patent publication US6617444B1, “Dinucleotide tetraphosphate crystals” (Yamasa Corporation, priority 1999, dated 2003).

Columns and labels:
[1] = Hygroscopicity: standing at controlled temperature and relative humidity; format: physicochemical
Experimental: dCP4U.4Na crystals (decahydrate) having a water content of approximately 17.4% were allowed to stand for two days under the following conditions a), b) and c): a) 25° C. and a relative humidity of 57%; b) 25° C. and a relative humidity of 75%; c) 25° C. and a relative humidity of 93%. […] The crystals have proven to be stable and to have no hygroscopicity. In addition, the same crystals were allowed to stand for seven days under the following severe conditions d): d) 40° C. and a relative humidity of 75%.

[2] = Stability: acceleration test, sealed bottles stored at 60° C.; format: physicochemical; settings: sealed bottle, 13 days at 60° C. (acceleration test)
Experimental: dCP4U.4Na crystals (decahydrate) and a freeze-dried product were individually placed in bottles, which were then sealed and stored for 13 days at 60° C. (acceleration test).

[3] = two days, 25° C., relative humidity 75%
[4] = two days, 25° C., relative humidity 93%

| change on standing under severe conditions ([1]; seven days, 40° C., relative humidity 75%) | decomposition on storage [2] | purity loss on storage [2] | SMILES | decomposition or change in weight on standing (hygroscopicity) ([1]; two days, 25° C., relative humidity 57%) | decomposition or change in weight / state on standing (hygroscopicity) [1, 3] | decomposition or change in weight / state on standing (hygroscopicity) [1, 4] |
| --- | --- | --- | --- | --- | --- | --- |
| No change was observed | No decomposition |  | Nc1ccn([C@H]2CC(O)[C@@H](COP(=O)(O)OP(=O)(O)OP(=O)(O)OP(=O)(O)OC[C@H]3O[C@@H](n4ccc(=O)[nH]c4=O)C(O)C3O)O2)c(=O)n1 (stereo partly drawn) [dCP4U.4Na crystals (decahydrate), p^1-(2′-deoxycytidine 5′-)P^4-(uridine 5′-)tetraphosphate] | No decomposition or change in weight was observed | No decomposition or change in weight was observed | No decomposition or change in weight was observed |
|  | partially decomposed | approximately 2.2% | Nc1ccn([C@H]2CC(O)[C@@H](COP(=O)(O)OP(=O)(O)OP(=O)(O)OP(=O)(O)OC[C@H]3O[C@@H](n4ccc(=O)[nH]c4=O)C(O)C3O)O2)c(=O)n1 (stereo partly drawn) [freeze-dried product, p^1-(2′-deoxycytidine 5′-)P^4-(uridine 5′-)tetraphosphate, reference compound] |  | assumed a mud-like state due to gradual increase in water content | assumed a mud-like state due to gradual increase in water content |
